The record followed here is ChEMBL document CHEMBL1641556, “MDCK cell permeability characteristics of a sulfenamide prodrug: strategic implications in considering sulfenamide prodrugs for oral delivery of NH-acids” (Bioorg Med Chem Lett, 2011).

A short description of data set [1]: Hydrolytic stability of the compound assessed as half life at pH 6. In kind it is physicochemical. As to conditions: buffer.
A short description of data set [2]: Apparent permeability from apical to basolateral side of MDCK cells. In kind it is ADME, cell-based, Canis lupus familiaris. Conditions: dog.
The nature of data set [3]: Apparent permeability from basolateral to apical side of MDCK cells. In kind it is ADME, cell-based, Canis lupus familiaris. Conditions: dog.

Molecules are shown by their SMILES.

For the molecule `N[C@@H](CSNC(=O)c1ccccc1)C(=O)O`, the t1/2 in data set [1] is recorded as 6.3 yr.

Consider `CC(=O)NC[C@H]1CN(c2ccc(N3CCOCC3)c(F)c2)C(=O)O1` [LINEZOLID], for which the Papp A→B (in general, how fast a substance crosses the layer from the apical side) in data set [2] turned out to be 9 ×10⁻⁶ cm/s. In data set [3], the Papp B→A (in general, how fast a substance crosses the layer from the basolateral side) was found to be 10.6 ×10⁻⁶ cm/s.
